The values below come from ChEMBL document CHEMBL1201862, “PubChem BioAssay data set” (2004).

Active and inactive are the calls of the source.

A short description of one test: cells. The test is classed as functional.
Test [1] addresses T1, G-protein coupled receptor 55 (Homo sapiens, UniProt Q9Y2T6). Description: GPR55 agonists via beta-arrestin recruitment, primary screen, imaging, U2OS cells, beta-arrestin-GFP redistribution (AID 1961). The format is functional. For orientation: Activated receptors often draw arrestin, which recruitment assays turn into a signal.
The next test deals with Cytochrome P450 3A4 (Homo sapiens, UniProt P08684). Particulars: Potency.
Chain of Cytochrome P450 3A4 (P08684 whole entry): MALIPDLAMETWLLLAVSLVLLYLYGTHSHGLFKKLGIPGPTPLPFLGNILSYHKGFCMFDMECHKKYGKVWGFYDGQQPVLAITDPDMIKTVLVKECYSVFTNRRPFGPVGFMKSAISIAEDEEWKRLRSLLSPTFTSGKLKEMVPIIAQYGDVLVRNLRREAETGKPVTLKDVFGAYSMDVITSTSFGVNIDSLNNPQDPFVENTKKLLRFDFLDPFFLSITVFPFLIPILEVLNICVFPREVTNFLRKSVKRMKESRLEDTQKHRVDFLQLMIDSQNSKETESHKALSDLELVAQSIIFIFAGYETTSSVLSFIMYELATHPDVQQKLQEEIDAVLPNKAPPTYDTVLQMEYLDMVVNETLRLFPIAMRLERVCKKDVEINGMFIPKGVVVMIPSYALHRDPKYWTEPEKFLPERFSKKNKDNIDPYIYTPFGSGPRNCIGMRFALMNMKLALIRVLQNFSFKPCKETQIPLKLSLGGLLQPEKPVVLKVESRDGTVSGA
Test [2] has as its target T2, Alkaline phosphatase, tissue-nonspecific isozyme (Homo sapiens, UniProt P05186).
T2 sequence (P05186 whole entry): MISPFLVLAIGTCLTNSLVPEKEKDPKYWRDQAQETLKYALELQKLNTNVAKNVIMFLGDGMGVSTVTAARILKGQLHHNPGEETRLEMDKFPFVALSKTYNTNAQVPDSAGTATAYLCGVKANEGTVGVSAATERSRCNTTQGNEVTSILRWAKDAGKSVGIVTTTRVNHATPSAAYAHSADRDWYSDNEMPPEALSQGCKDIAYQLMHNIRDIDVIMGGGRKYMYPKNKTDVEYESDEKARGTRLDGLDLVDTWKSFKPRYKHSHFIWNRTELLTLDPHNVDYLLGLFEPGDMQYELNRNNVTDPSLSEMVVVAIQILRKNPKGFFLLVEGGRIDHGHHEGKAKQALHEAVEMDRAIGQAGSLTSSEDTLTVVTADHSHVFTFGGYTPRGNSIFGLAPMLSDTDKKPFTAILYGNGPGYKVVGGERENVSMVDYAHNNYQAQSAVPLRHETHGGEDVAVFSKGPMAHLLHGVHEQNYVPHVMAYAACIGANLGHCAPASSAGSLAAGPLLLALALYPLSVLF
The test is described as follows: human TNAP enzyme inhibitors, SAR follow-up, biochemical, luminescent, dose response (AID 1056).

The target of test [3] is Alkaline phosphatase, placental type (Homo sapiens, UniProt P05187). The test is described as follows: PLAP enzyme inhibitors, confirmation, biochemical, luminescence (AID 1512). The test is classed as functional.
Chain of Alkaline phosphatase, placental type (P05187 whole entry): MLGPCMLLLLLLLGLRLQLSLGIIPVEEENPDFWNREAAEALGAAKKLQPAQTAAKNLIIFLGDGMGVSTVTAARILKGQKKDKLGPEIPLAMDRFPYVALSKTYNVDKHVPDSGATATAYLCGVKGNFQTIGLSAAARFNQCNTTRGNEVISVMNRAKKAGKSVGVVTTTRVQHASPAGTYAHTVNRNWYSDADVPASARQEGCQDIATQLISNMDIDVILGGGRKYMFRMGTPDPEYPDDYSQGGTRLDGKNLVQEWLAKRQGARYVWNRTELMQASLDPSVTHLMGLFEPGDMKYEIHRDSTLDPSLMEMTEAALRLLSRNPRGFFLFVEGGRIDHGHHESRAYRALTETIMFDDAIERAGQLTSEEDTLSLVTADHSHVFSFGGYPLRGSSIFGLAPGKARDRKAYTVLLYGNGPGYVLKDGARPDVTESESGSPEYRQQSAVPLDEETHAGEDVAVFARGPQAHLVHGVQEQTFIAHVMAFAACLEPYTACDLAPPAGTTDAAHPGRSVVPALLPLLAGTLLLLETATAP
The target of test [4] is Eukaryotic translation initiation factor 4E (Mus musculus, UniProt P63073). Description: eIF4E–eIF4G protein interaction inhibitors, dose response, biochemical, TR-FRET (AID 855).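 Further: potency for disrupting eIF4E binding to eIF4GI seen as loss of FRET.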 The test is classed as functional.
Chain of Eukaryotic translation initiation factor 4E (P63073 whole entry): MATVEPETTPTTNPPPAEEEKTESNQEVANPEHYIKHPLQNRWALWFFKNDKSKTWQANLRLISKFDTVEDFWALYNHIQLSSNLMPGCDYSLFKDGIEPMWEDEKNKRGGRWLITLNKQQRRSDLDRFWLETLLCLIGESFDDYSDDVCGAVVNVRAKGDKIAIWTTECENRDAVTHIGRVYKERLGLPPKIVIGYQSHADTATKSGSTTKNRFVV
In test [5] the target is Glucose-6-phosphate 1-dehydrogenase (Homo sapiens, UniProt P11413). Description: human G6PD enzyme inhibitors, dose response, selectivity assay for P. falciparum G6PD inhibitor project, biochemical, fluorescence (AID 504792). The format is functional.
Chain of Glucose-6-phosphate 1-dehydrogenase (P11413 whole entry): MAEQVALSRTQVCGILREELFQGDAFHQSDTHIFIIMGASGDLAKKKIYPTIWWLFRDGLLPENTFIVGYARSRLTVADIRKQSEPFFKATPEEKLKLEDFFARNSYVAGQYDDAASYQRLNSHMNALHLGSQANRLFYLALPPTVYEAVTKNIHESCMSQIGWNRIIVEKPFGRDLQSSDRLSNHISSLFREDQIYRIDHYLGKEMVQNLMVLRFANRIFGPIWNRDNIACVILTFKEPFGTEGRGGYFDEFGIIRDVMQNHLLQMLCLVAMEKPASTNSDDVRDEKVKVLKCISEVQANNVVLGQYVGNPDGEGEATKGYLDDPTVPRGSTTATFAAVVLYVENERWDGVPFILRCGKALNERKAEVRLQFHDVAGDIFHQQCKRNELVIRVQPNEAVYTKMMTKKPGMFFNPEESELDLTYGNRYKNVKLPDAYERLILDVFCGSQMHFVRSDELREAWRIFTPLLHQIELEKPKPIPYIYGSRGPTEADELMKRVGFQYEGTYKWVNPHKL
The target in test [6] is T3, DNA dC->dU-editing enzyme APOBEC-3A (Homo sapiens, UniProt P31941). The test is described as follows: APOBEC3A DNA deaminase inhibitors, dose response, biochemical (AID 504722). The test is classed as functional.
T3 sequence (P31941 whole entry): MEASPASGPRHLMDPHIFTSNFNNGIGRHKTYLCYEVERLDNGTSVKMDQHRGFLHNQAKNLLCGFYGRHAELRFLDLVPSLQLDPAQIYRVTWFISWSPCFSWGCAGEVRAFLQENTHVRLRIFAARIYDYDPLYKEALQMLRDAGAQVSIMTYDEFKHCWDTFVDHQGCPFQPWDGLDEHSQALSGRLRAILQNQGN
Test [7] concerns the target T4, DNA dC->dU-editing enzyme APOBEC-3G (Homo sapiens, UniProt Q9HC16). Description: Dose Response confirmation of small molecule APOBEC3G DNA Deaminase Inhibitors via a fluorescence-based single-stranded DNA deaminase assay. [Related pubchem assays (depositor defined):AID493012, AID493028]. The format is functional.
Test [8] deals with T3, DNA dC->dU-editing enzyme APOBEC-3A. The test is described as follows: Dose Response confirmation of small molecule APOBEC3A DNA Deaminase Inhibitors via a fluorescence-based single-stranded DNA deaminase assay. [Related pubchem assays (depositor defined):AID493011, AID493024]. The format is functional.
Test [9] concerns the target T4, DNA dC->dU-editing enzyme APOBEC-3G. The test is classed as functional.
Test [10] addresses T1, G-protein coupled receptor 55. The test is described as follows: GPR55 antagonists blocking LPI-driven arrestin recruitment, primary screen, imaging, U2OS, beta-arrestin-GFP, LPI agonist (AID 2013).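 Further: antagonist potency measured as reduced agonist-driven arrestin aggregation.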 The test is classed as functional.
Test [11] has as its target Glyceraldehyde-3-phosphate dehydrogenase (Homo sapiens, UniProt P04406).
Test [12] is described as follows: microbe, parasite or virus in culture. The format is functional. Particulars: Mycobacterium tuberculosis.
The target in test [13] is FAD-linked sulfhydryl oxidase ALR (Homo sapiens, UniProt P55789). The test is described as follows: inhibitors of human ALR sulfhydryl oxidase, dose response, biochemical, H2O2 detection, luminescence, cherry-pick (AID 493248).
Chain of FAD-linked sulfhydryl oxidase ALR (P55789 whole entry): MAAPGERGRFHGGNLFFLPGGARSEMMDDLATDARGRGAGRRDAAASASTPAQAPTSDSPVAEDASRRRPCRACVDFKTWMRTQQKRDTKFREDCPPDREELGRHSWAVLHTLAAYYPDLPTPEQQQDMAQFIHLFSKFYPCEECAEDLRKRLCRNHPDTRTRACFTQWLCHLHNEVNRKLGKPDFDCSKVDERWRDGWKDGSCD
In test [14] the target is T5, Rac GTPase-activating protein 1 (Homo sapiens, UniProt Q9H0H5).
T5 sequence (Q9H0H5 whole entry): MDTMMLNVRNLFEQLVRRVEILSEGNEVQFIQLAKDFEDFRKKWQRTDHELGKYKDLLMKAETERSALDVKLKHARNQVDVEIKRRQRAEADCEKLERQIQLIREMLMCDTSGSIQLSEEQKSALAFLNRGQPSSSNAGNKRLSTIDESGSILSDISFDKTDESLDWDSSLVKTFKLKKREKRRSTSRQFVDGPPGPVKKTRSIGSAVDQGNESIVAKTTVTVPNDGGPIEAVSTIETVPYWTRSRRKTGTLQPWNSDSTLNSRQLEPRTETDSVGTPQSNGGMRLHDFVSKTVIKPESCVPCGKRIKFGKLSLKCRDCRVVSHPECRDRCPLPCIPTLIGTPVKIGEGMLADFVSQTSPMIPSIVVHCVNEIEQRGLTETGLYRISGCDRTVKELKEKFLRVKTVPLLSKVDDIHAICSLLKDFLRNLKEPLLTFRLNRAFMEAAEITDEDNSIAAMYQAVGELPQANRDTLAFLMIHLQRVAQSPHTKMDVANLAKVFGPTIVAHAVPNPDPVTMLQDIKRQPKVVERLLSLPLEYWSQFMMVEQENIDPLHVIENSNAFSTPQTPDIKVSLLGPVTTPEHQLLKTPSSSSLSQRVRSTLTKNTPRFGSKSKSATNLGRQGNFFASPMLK
The test is described as follows: MgcRacGAP GTPase-activating activity inhibitors, confirmation, biochemical, ADP Hunter fluorescence, primary and confirmatory (AID 624330). The test is classed as functional.

Test [15] addresses Transitional endoplasmic reticulum ATPase (Homo sapiens, UniProt P55072, C522A). The test is described as follows: C522A mutant p97 ATPase inhibitors, dose response, counter-screen for p97 inhibitor project, biochemical, luminescence (AID 1544). For orientation: Counterscreens check selectivity or assay interference.
A short description of test [16]: C. albicans growth with fluconazole, confirmation, fluorescence, retest (AID 2467). The test is classed as functional, cell-based.
For test [17], the target named is Transitional endoplasmic reticulum ATPase (Homo sapiens, UniProt P55072). The test is described as follows: p97 ATPase inhibitors, dose response, biochemical (AID 1534).
Chain of Transitional endoplasmic reticulum ATPase (Homo sapiens, UniProt P55072) (P55072 whole entry): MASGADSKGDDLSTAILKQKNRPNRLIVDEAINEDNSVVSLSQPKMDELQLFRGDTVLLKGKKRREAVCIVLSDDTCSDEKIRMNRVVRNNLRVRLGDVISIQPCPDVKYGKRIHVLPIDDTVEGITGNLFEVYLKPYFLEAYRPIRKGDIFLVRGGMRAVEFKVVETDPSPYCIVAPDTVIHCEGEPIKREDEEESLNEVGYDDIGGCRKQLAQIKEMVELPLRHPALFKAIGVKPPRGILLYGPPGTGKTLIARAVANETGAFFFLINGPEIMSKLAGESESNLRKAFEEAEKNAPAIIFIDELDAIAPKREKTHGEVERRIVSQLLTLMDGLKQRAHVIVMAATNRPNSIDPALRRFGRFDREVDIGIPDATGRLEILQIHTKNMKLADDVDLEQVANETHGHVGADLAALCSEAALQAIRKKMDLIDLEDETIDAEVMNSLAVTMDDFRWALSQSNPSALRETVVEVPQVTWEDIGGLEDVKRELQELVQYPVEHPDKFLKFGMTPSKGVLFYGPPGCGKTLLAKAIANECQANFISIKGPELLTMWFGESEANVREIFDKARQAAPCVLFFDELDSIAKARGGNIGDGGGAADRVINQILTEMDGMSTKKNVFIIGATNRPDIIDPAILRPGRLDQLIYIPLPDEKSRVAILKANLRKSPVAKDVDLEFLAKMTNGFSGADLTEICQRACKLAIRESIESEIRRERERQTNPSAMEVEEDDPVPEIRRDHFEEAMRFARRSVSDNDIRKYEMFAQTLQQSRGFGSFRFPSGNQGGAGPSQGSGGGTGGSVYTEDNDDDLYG
The target in a further test is T6, Streptokinase A (Streptococcus pyogenes serotype M1, UniProt P10520).
T6 sequence (P10520 whole entry): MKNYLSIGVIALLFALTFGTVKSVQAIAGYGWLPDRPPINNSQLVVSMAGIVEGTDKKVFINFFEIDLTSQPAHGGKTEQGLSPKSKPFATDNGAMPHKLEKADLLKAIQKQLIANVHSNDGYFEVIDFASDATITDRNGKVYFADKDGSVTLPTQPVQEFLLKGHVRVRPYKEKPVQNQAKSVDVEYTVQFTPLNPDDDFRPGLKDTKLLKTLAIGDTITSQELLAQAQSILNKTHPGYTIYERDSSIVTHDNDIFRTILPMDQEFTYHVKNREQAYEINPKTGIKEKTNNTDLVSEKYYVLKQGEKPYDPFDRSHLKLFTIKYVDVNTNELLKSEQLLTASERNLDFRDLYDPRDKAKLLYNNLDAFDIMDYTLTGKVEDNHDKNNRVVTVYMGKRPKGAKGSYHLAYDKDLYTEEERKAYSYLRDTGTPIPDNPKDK
The test is described as follows: S. pyogenes streptokinase expression inhibitors, potency, dose response, plasminogen activation absorbance, OD405 (AID 1914).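 Further: secreted streptokinase activity via plasminogen activation per viability signal from cell pellet.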 The test is classed as functional, Streptococcus pyogenes M1 GAS.

The subject of test [18] is Streptococcus sp. 'group A'. The test is described as follows: growth inhibition of control SK(-) GAS strain, dose response, counter-screen for streptokinase expression inhibitor project, luminescence, kanamycin, BacTiterGlo, confirmation (AID 1900). The format is functional, organism-based.
The nature of test [19]: NIH-3T3 fibroblast cytotoxicity, dose response, cytotoxicity control, cell-based, fluorescence, Alamar Blue, secondary assay (AID 2327).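 Further: NIH-3T3 mouse fibroblasts cultured with fluconazole at 8 µg/mL.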 The test is classed as functional. On the technique in general: Alamar Blue is a resazurin reagent that responds to reducing activity.
The test system of another test is Streptococcus. Description: Group A Streptococcus viability loss, dose response, counter-screen for streptokinase expression inhibitor project, luminescence, BacTiterGlo (AID 1915).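 Further: potency for reduction of bacterial viability or growth.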 The test is classed as functional, organism-based.

T1 sequence (Q9Y2T6 whole entry): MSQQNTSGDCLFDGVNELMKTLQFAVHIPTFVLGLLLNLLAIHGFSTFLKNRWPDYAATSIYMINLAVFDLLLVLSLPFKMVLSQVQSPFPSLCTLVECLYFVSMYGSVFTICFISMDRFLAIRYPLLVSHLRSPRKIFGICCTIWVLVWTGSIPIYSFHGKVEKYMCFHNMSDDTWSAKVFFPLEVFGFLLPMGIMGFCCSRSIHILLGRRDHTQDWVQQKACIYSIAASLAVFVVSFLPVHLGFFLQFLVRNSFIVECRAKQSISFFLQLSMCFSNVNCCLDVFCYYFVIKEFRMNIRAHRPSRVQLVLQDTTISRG
T4 sequence (Q9HC16 whole entry): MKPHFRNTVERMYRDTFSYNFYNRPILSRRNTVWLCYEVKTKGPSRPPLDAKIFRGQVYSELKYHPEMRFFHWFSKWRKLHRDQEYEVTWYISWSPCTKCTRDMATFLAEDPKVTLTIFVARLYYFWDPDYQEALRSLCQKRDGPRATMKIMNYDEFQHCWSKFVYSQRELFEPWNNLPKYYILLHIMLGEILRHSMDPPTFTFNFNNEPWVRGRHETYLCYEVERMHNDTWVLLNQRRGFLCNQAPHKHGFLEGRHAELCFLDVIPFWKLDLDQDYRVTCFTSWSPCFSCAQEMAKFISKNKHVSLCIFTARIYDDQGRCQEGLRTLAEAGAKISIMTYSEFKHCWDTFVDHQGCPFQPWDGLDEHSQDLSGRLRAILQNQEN
Chain of Glyceraldehyde-3-phosphate dehydrogenase (P04406 whole entry): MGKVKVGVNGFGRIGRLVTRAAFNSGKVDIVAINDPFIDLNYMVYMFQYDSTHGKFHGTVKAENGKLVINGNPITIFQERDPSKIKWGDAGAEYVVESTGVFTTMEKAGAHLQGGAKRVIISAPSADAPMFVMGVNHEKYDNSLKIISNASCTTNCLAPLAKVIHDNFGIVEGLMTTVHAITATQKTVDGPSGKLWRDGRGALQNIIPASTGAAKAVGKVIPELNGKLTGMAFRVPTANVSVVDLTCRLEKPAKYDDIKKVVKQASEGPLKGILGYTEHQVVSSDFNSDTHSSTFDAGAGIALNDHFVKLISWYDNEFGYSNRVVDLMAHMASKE
Chain of Transitional endoplasmic reticulum ATPase (Homo sapiens, UniProt P55072, C522A) (P55072 2-806 C522A limits assumed): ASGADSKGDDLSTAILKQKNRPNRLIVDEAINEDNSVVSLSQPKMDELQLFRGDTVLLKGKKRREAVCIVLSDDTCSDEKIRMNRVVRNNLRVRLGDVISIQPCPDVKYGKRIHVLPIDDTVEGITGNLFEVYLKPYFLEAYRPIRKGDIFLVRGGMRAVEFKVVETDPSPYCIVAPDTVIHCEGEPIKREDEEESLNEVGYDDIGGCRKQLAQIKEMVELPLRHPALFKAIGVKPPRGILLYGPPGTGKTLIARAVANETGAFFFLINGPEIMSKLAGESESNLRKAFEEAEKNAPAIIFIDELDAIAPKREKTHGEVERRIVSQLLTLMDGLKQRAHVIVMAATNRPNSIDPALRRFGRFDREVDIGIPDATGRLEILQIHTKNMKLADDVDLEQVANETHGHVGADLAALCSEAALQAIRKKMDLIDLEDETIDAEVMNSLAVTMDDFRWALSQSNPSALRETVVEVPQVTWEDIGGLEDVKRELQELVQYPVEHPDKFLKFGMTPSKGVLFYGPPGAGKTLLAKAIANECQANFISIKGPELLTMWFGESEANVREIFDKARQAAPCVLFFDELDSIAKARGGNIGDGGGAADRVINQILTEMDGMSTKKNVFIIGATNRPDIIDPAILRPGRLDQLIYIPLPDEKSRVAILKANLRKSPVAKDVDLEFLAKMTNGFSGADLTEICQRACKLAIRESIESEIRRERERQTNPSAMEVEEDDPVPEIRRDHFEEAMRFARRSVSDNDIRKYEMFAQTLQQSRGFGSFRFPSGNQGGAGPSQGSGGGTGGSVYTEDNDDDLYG

`Cc1cccc(OC(=O)c2ccc3nccnc3c2)c1`: in the test “cells”, the IC50 was 9.63 µM (active). Take `COc1ccc(SC[C@H](CC(C)C)N2CCN(CCc3ccccc3)CCC2=O)cc1`: the EC50 in [1] was 10.8 µM (inactive). For `CCN1CCCC1Cn1c(-c2ccccc2)nc2c(N3CCOCC3)nc(C)nc21` (configuration not stated), the concentration at half-maximal activity (AC50) on Cytochrome P450 3A4 was 12.6 µM (inconclusive).

Regarding `CCOC(=O)COc1ccc(C(=O)c2ccccc2)c(O)c1`, the IC50 in “cells” was 3.02 µM (active). On to `CC(=O)Oc1ccc2c(c1)CCC1C2CC[C@]2(C)C(OC(C)=O)CCC12` (some centres not stated), for which the AC50 on Cytochrome P450 3A4 is 31.6 µM (inconclusive). Consider `Cc1ccc(C)c(NC(=S)NC(NC(=O)Cc2cccc3ccccc23)C(Cl)(Cl)Cl)c1` (configuration not stated), for which the IC50 in test [2] is > 100 µM (inactive); in test [3], 11.5 µM (active).

As to `COC(=O)[C@@H]1C[C@@]2(O)[C@H](O)[C@H](O)[C@H](O)C[C@H]2N1Cc1ccc(C(F)(F)F)cc1`, the AC50 on Cytochrome P450 3A4 was 20 µM (inconclusive). In the case of `CCOC(=O)/C(C#N)=C/c1ccc(OC(=O)c2ccccn2)cc1`, the IC50 in [4] was > 64 µM (inactive). Regarding `Cc1ccc(NC(=O)Cn2sc3nc(C)cc(C)c3c2=O)c(Cl)c1`, the IC50 is 30.5 µM (inactive) in test [5], > 100 µM (inactive) in [6] and 4.88 µM (active) in test [7]. With `COC(=O)C1=C(C)N(Cc2ccccc2)C(NCc2ccc(OC)cc2)=N[C@H]1c1ccccc1`, the IC50 in test [8] is 5.01 µM (active); in test [9], 10.8 µM (active). Regarding `COC(=O)c1ccc(Cn2cc(C(F)(F)F)cc([N+](=O)[O-])c2=O)cc1`, the IC50 in the test “cells” is 1.28 µM (active).

On to `N#CC1=C(S)N(c2ccccc2)C(c2ccc(-c3cc(Cl)ccc3Cl)o2)NC1=O` (configuration not stated), for which, in test [1], the EC50 was > 32 µM (inactive). `COc1ccc(C23CC4CC(CC(C4)C2)C3)cc1C(=O)NCCN(C)C`: the IC50 in [10] is 1.37 µM (active). For `COc1ccc(-c2c(-c3ccc(OCC(=O)NN)cc3O)n[nH]c2C(F)(F)F)cc1`, the IC50 in test [10] was 2.75 µM (active). With `CC1(C)CC(=O)c2c(-c3ccc(F)cc3)n[nH]c2C1`, the values for the 50% inhibitory concentration (IC50) in test [2], in [11] and in [3] were 5.95 µM (active), > 100 µM (not active) and > 100 µM (inactive), respectively. As for `O=C(NNC(=S)NC(=O)c1ccccc1[N+](=O)[O-])c1ccccc1[N+](=O)[O-]`, the IC50 in test [3] was > 100 µM (inactive). For the compound `O=C1c2ccccc2C(=O)N1c1nncs1`, the IC50 is > 100 µM (inactive) in [2] and > 100 µM (not active) in [11]. With `COC(=O)C1=C(C)N(CC2CC2)C(=NCCN2CCOCC2)N[C@H]1c1ccccc1`, the IC50 in test [8] was 5.16 µM (active); in test [9], 4.91 µM (active). In the case of `COc1ccc(-c2csc3nc(-c4ccccc4OC)oc(=O)c23)cc1`, the CC50 in [12] is 30.8 µM (active). For the same compound, in test [1], the EC50 is 25 µM (inactive). Turning to `O=C(O)c1cc(NS(=O)(=O)c2ccc(NC3CCCCC3)c([N+](=O)[O-])c2)cc(C(=O)O)c1`, in test [10], the IC50 is 5.62 µM (active). Turning to `Sc1nc(-c2ccc(Cl)cc2Cl)n[nH]1`, the values for the IC50 in [2], in [11] and in [3] were > 100 µM (inactive), > 100 µM (not active) and > 100 µM (inactive), respectively.

For `CC(NC(=O)COc1ccc(-c2ccccc2)cc1)C1CCCO1` (configuration not stated), in “cells”, the IC50 was 45.6 µM (active).

Turning to `COc1ccc(/C=N/NC(=O)c2cc(C34CC5CC(CC(C5)C3)C4)[nH]n2)cc1OC`, in [10], the half-maximal inhibitory concentration (IC50) was 2.74 µM (active). Regarding `Cc1ccc(/C=N/n2c(S)nnc2-c2cccnc2)s1`, the IC50 in test [6] is > 100 µM (inactive); in test [7] it was 2 µM (active); in test [14], 53.9 µM (active). In addition, the AC50 in [13] is 2.34 µM (active).

As to `Cc1ccc(SC/C(O)=C(\C#N)c2nc3ccccc3s2)cc1`, the IC50 in [15] and in test [17] was > 50 µM (not active) throughout. The EC50 in test [16] is 0.425 µM (active); at Streptokinase A, > 150 µM (not active); in test [18] it was 2.95 µM (active); in test [19], 138 µM (active); in the test with Streptococcus, 7.74 µM (active). `Cc1c2ccccc2cc(Cc2ccccc2)[n+]1C`: the values for the IC50 in [8] and in test [9] were 3.64 µM (active) and 2.98 µM (active), respectively.

The term IC50 denotes the midpoint of a concentration-inhibition curve. The term EC50 denotes the concentration giving half of the maximal effect. The term AC50 denotes the midpoint of the concentration-response curve, whichever way the signal moves.
